Measured values reported in PubChem BioAssay (NCI).
Several values for one entry are separate records, joined by “and”; a condition that tells them apart may be missing. Equal entries are not always repeated.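 Test compounds were applied to cells in 96-well plates for 48 hours at 5 doses. GI50 is the concentration that inhibits growth by half. TGI is the concentration that stops growth completely.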

test system: NCI/ADR-RES ovarian; assay: DTP human tumour cell line panel, 48 h

Which TGI does the source give for `COc1cc(C#CC(=O)OC/C=C/c2ccc3c(c2)OCO3)cc(OC)c1OC` here?
The TGI was 47.8 µM.

Which results are given for `O/N=C/C1C(OCc2ccccc2)C(OCc2ccccc2)C(OCc2ccccc2)CN1Cc1ccccc1` (stereo unspecified)?
GI50: 7.12 µM and 22.3 µM; TGI: 72.5 µM and > 100 µM

Which results are given for `O=C1NC(=O)C(c2cnc3ccccn23)=C1c1cn2c3c(cc(F)cc13)CN(C(=O)N1CCCCC1)CC2`?
GI50: 19.7 µM; TGI: > 100 µM

`Clc1nc2ccccc2nc1CI` was tested. Which GI50 did it give?
Its GI50 is 4.1 µM.

And the TGI?
The TGI was 18.1 µM.

How did the GI50 turn out when `Cn1nc(N)c2cc([C@@H]3Nc4ccc5[nH]ncc5c4[C@H]4C5CCC(C5)[C@@H]34)ccc21` (stereo partly specified) was run?
The GI50 was 0.4 µM.

And the TGI?
Its TGI is 10 µM.

With `O=C(O)C1C2C=CC(O2)C1C(=O)NCc1ccccn1` (stereo unspecified) as the compound, how does the TGI read?
The TGI was > 100 µM.

How did the GI50 turn out when `O=C(OC(CNc1cc(=O)n(Cc2ccccc2)c(=O)n1Cc1ccccc1)CN1CCCC1)c1ccccc1` (stereo unspecified) was run?
Its GI50 is > 100 µM.

And the TGI?
The TGI was > 100 µM.

Which results are given for `CCN(CC)CCCC(CNc1ccnc2cc(Cl)ccc12)c1ccc(Cl)cc1` (stereo unspecified)?
GI50: 2.02 µM and 2.13 µM; TGI: 5.14 µM and 5.87 µM

`CCOC(=O)CCCn1c(SC)nc2[nH]cc(-c3ccccc3)c2c1=O` was tested. Which GI50 did it give?
The GI50 was 18.9 µM.

What about the TGI of the same compound?
Its TGI is 53.1 µM.

With `[Cl][Hg][c]1cc(Br)cc(Br)c1` as the compound, how does the GI50 read?
Its GI50 is 3.07 µM.

What about the TGI of the same compound?
Its TGI is 13.5 µM.

Which GI50 does the source give for `CCN(CC)CCOc1ccc(-c2nc3cc(Cl)ccc3s2)cc1` here?
Its GI50 is 1.97 µM.

What about the TGI of the same compound?
The TGI was 3.87 µM.

With `C=C1C(=O)O[C@@H]2C[C@@H]1CC/C(C)=C/CC/C(C)=C/CC[C@@]2(C)O` as the compound, how does the GI50 read?
Its GI50 is 9.28 µM.

And the TGI?
The TGI was 24.4 µM.

Which TGI does the source give for `CNC(=O)N(C)N=NCCCl` here?
Its TGI is > 100 µM.

Which GI50 does the source give for `CCN1CCN(C(c2ccc(C(F)(F)F)cc2)c2ccc3cccnc3c2O)CC1` (stereo unspecified) here?
Its GI50 is 1.77 µM.

And the TGI?
The TGI was 10.9 µM.

For `COc1ccc(C(C)=O)cc1N1C(=O)C2C(C1=O)C1(c3ccccc3)C(=O)C2(c2ccccc2)C(c2ccc(C)cc2)=C1c1ccc(C)cc1` (stereo unspecified), which GI50 is on record?
Its GI50 is > 100 µM.

And the TGI?
Its TGI is > 100 µM.

How did the TGI turn out when `O=C1c2cccc(NCCCNCCO)c2C(=O)c2cccc(NCCCNCCO)c21` was run?
Its TGI is 28.6 µM.

How did the TGI turn out when `NC(=Nc1c([N+](=O)[O-])cnc2ccccc12)N1CCOCC1` was run?
Its TGI is > 100 µM.

Which GI50 does the source give for `CCN(CC)c1ccc2c(c1)OC(N)=C(C#N)C2c1cc(OC)c2c(c1)OCO2` (stereo unspecified) here?
The GI50 was < 0.0142 µM.

What about the TGI of the same compound?
The TGI was 0.0679 µM.

What does the source list for `N#CC(=C1C=CC(=NO)C=C1)c1ccccc1`?
GI50: 1.49 µM; TGI: 11.8 µM

How did the GI50 turn out when `CC(C)=CCNc1ncnc2c1ncn2C1OC(CO)C(O)C1O` (stereo unspecified) was run?
The GI50 was 1.5 µM.

And the TGI?
The TGI was 52.1 µM.

How did the GI50 turn out when `CCC(C)n1ncn(-c2ccc(N3CCN(c4ccc(OCC5COC(Cn6cncn6)(c6ccc(Cl)cc6Cl)O5)cc4)CC3)cc2)c1=O` (stereo unspecified) was run?
Its GI50 is 26.1 µM.

What about the TGI of the same compound?
Its TGI is > 100 µM.

What does the source list for `CC(C)CCN1c2nc(Nc3cc(F)c(O)c(F)c3)ncc2N(C)C(=O)C1C` (stereo unspecified)?
GI50: 7.81 µM; TGI: > 100 µM

Which GI50 does the source give for `O=C(CNc1ccc(Cl)cc1)Nc1ccc(-c2nc3ccccc3s2)cc1` here?
The GI50 was 3.42 µM.

What about the TGI of the same compound?
Its TGI is 11.4 µM.

Which GI50 does the source give for `CCCCCCCCCCCCOC1C(C(COC2OC(C3COC(C)(C)O3)C3OC(C)(C)OC23)NC(=O)Nc2ccc(C(=O)O)cc2)OC2OC(C)(C)OC21` (stereo unspecified) here?
Its GI50 is 10.9 µM.

And the TGI?
The TGI was 24.8 µM.

For `CCN(CC)CCC(CNc1ccnc2cc(Cl)ccc12)c1ccc(OC)cc1` (stereo unspecified), which GI50 is on record?
Its GI50 is 8.66 µM and 7.57 µM.

And the TGI?
The TGI was 47.5 µM and 34.3 µM.

With `COc1ccc(/C=C(/C(=O)N2CCN(c3ccccc3)CC2)c2cc(OC)c(OC)c(OC)c2)cc1O` as the compound, how does the GI50 read?
The GI50 was 0.676 µM.

And the TGI?
Its TGI is > 100 µM.

test system: NCI-H226 lung; assay: DTP human tumour cell line panel, 48 h

Which TGI does the source give for `COc1cc(C#CC(=O)OC/C=C/c2ccc3c(c2)OCO3)cc(OC)c1OC` here?
Its TGI is 48.5 µM.

How did the GI50 turn out when `O/N=C/C1C(OCc2ccccc2)C(OCc2ccccc2)C(OCc2ccccc2)CN1Cc1ccccc1` (stereo unspecified) was run?
The GI50 was 13.7 µM and 4.2 µM.

And the TGI?
Its TGI is 33.8 µM and 85.2 µM.

Which results are given for `O=C1NC(=O)C(c2cnc3ccccn23)=C1c1cn2c3c(cc(F)cc13)CN(C(=O)N1CCCCC1)CC2`?
GI50: 3.7 µM; TGI: 54.8 µM

Which results are given for `Clc1nc2ccccc2nc1CI`?
GI50: 2.67 µM; TGI: 8.24 µM

For `Cn1nc(N)c2cc([C@@H]3Nc4ccc5[nH]ncc5c4[C@H]4C5CCC(C5)[C@@H]34)ccc21` (stereo partly specified), which GI50 is on record?
Its GI50 is 1.14 µM.

And the TGI?
Its TGI is 23.5 µM.

For `O=C(O)C1C2C=CC(O2)C1C(=O)NCc1ccccn1` (stereo unspecified), which TGI is on record?
Its TGI is > 100 µM.

For `O=C(OC(CNc1cc(=O)n(Cc2ccccc2)c(=O)n1Cc1ccccc1)CN1CCCC1)c1ccccc1` (stereo unspecified), which GI50 is on record?
The GI50 was 81.8 µM.

And the TGI?
The TGI was > 100 µM.

What does the source list for `CCN(CC)CCCC(CNc1ccnc2cc(Cl)ccc12)c1ccc(Cl)cc1` (stereo unspecified)?
GI50: 2.14 µM and 2.55 µM; TGI: 5.81 µM and 8.83 µM

With `CCOC(=O)CCCn1c(SC)nc2[nH]cc(-c3ccccc3)c2c1=O` as the compound, how does the GI50 read?
Its GI50 is 14.1 µM.

What about the TGI of the same compound?
The TGI was 45.1 µM.

Which results are given for `[Cl][Hg][c]1cc(Br)cc(Br)c1`?
GI50: 3.48 µM; TGI: 8.84 µM

How did the GI50 turn out when `CCN(CC)CCOc1ccc(-c2nc3cc(Cl)ccc3s2)cc1` was run?
The GI50 was 2.02 µM.

And the TGI?
Its TGI is 4.43 µM.

For `C=C1C(=O)O[C@@H]2C[C@@H]1CC/C(C)=C/CC/C(C)=C/CC[C@@]2(C)O`, which GI50 is on record?
The GI50 was 4.54 µM.

What about the TGI of the same compound?
The TGI was 22.2 µM.

With `CNC(=O)N(C)N=NCCCl` as the compound, how does the TGI read?
Its TGI is > 100 µM.

What does the source list for `CCN1CCN(C(c2ccc(C(F)(F)F)cc2)c2ccc3cccnc3c2O)CC1` (stereo unspecified)?
GI50: 3.09 µM; TGI: 13.7 µM

`COc1ccc(C(C)=O)cc1N1C(=O)C2C(C1=O)C1(c3ccccc3)C(=O)C2(c2ccccc2)C(c2ccc(C)cc2)=C1c1ccc(C)cc1` (stereo unspecified) was tested. Which GI50 did it give?
The GI50 was > 100 µM.

What about the TGI of the same compound?
The TGI was > 100 µM.

What does the source list for `O=C1c2cccc(NCCCNCCO)c2C(=O)c2cccc(NCCCNCCO)c21`?
GI50: 1.93 µM and 0.729 µM; TGI: 5.11 µM and 2.99 µM

How did the TGI turn out when `NC(=Nc1c([N+](=O)[O-])cnc2ccccc12)N1CCOCC1` was run?
Its TGI is > 100 µM.

Which results are given for `CCN(CC)c1ccc2c(c1)OC(N)=C(C#N)C2c1cc(OC)c2c(c1)OCO2` (stereo unspecified)?
GI50: 0.047 µM; TGI: 0.942 µM

For `N#CC(=C1C=CC(=NO)C=C1)c1ccccc1`, which GI50 is on record?
Its GI50 is 2.35 µM.

What about the TGI of the same compound?
Its TGI is 7.47 µM.

For `CC(C)=CCNc1ncnc2c1ncn2C1OC(CO)C(O)C1O` (stereo unspecified), which GI50 is on record?
Its GI50 is 2.6 µM.

And the TGI?
The TGI was 7.1 µM.

Which GI50 does the source give for `CCC(C)n1ncn(-c2ccc(N3CCN(c4ccc(OCC5COC(Cn6cncn6)(c6ccc(Cl)cc6Cl)O5)cc4)CC3)cc2)c1=O` (stereo unspecified) here?
Its GI50 is 28.1 µM.

What about the TGI of the same compound?
The TGI was > 100 µM.

Which results are given for `CC(C)CCN1c2nc(Nc3cc(F)c(O)c(F)c3)ncc2N(C)C(=O)C1C` (stereo unspecified)?
GI50: 17.4 µM; TGI: 41.2 µM

With `O=C(CNc1ccc(Cl)cc1)Nc1ccc(-c2nc3ccccc3s2)cc1` as the compound, how does the GI50 read?
Its GI50 is 2.94 µM.

And the TGI?
The TGI was 11 µM.

With `CCCCCCCCCCCCOC1C(C(COC2OC(C3COC(C)(C)O3)C3OC(C)(C)OC23)NC(=O)Nc2ccc(C(=O)O)cc2)OC2OC(C)(C)OC21` (stereo unspecified) as the compound, how does the GI50 read?
Its GI50 is 3.45 µM.

What about the TGI of the same compound?
The TGI was 19.2 µM.

With `CCN(CC)CCC(CNc1ccnc2cc(Cl)ccc12)c1ccc(OC)cc1` (stereo unspecified) as the compound, how does the GI50 read?
The GI50 was 4.14 µM and 4.92 µM.

And the TGI?
The TGI was 17.3 µM and 28.4 µM.

`COc1ccc(/C=C(/C(=O)N2CCN(c3ccccc3)CC2)c2cc(OC)c(OC)c(OC)c2)cc1O` was tested. Which GI50 did it give?
Its GI50 is 60.9 µM.

What about the TGI of the same compound?
Its TGI is > 100 µM.

test system: OVCAR-8 ovarian; assay: DTP human tumour cell line panel, 48 h

For `COc1cc(C#CC(=O)OC/C=C/c2ccc3c(c2)OCO3)cc(OC)c1OC`, which TGI is on record?
Its TGI is > 100 µM.

How did the TGI turn out when `O/N=C/C1C(OCc2ccccc2)C(OCc2ccccc2)C(OCc2ccccc2)CN1Cc1ccccc1` (stereo unspecified) was run?
The TGI was 39.9 µM and > 100 µM.

What does the source list for `O=C1NC(=O)C(c2cnc3ccccn23)=C1c1cn2c3c(cc(F)cc13)CN(C(=O)N1CCCCC1)CC2`?
GI50: 6.89 µM; TGI: > 92.1 µM

`Clc1nc2ccccc2nc1CI` was tested. Which GI50 did it give?
Its GI50 is 3.42 µM.

What about the TGI of the same compound?
The TGI was 12.4 µM.

Which results are given for `Cn1nc(N)c2cc([C@@H]3Nc4ccc5[nH]ncc5c4[C@H]4C5CCC(C5)[C@@H]34)ccc21` (stereo partly specified)?
GI50: 0.979 µM; TGI: > 88.2 µM

How did the TGI turn out when `O=C(O)C1C2C=CC(O2)C1C(=O)NCc1ccccn1` (stereo unspecified) was run?
The TGI was > 100 µM.

For `O=C(OC(CNc1cc(=O)n(Cc2ccccc2)c(=O)n1Cc1ccccc1)CN1CCCC1)c1ccccc1` (stereo unspecified), which GI50 is on record?
Its GI50 is > 100 µM.

And the TGI?
The TGI was > 100 µM.

Which results are given for `CCN(CC)CCCC(CNc1ccnc2cc(Cl)ccc12)c1ccc(Cl)cc1` (stereo unspecified)?
GI50: 2.61 µM and 1.57 µM; TGI: 7.61 µM and 3.99 µM

What does the source list for `CCOC(=O)CCCn1c(SC)nc2[nH]cc(-c3ccccc3)c2c1=O`?
GI50: 19 µM; TGI: 58.9 µM

`[Cl][Hg][c]1cc(Br)cc(Br)c1` was tested. Which GI50 did it give?
The GI50 was 2.78 µM.

And the TGI?
Its TGI is 7.64 µM.

What does the source list for `CCN(CC)CCOc1ccc(-c2nc3cc(Cl)ccc3s2)cc1`?
GI50: 1.99 µM; TGI: 4.02 µM

Which GI50 does the source give for `C=C1C(=O)O[C@@H]2C[C@@H]1CC/C(C)=C/CC/C(C)=C/CC[C@@]2(C)O` here?
Its GI50 is 21.7 µM.

And the TGI?
The TGI was 85.4 µM.
